From patent US8969516B2, “Method of hydrolysis of peptide bond” (priority 2006, dated 2015)

Assay: MALDI-TOF screening of Ni^2+ dependent hydrolysis in a combinatorial peptide library
Type: physicochemical
Details: Ni^2+ 2 mM, pH 8.2, 10 mM Tris, score=24/tm
Outline: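 Sublibraries of Ac-Gly-Ala-Ser/Thr-X-His-Z-Lys-Phe-Leu-NH2, randomized at Z and fixed at X, were hydrolyzed at 1 mM total peptide with 2 mM Ni2+ in 10 mM Tris, pH 8.2, at 37 °C or 45 °C. Cleavage was scored visually in MALDI-TOF spectra at 2, 4, 6 and 8 h.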

[1] = CH3CO-Gly-Ala-Thr-X-His-Z-Lys-Phe-Leu-NH2 library, 37° C.
[2] = CH3CO-Gly-Ala-Thr-X-His-Z-Lys-Phe-Leu-NH2 library, 45° C.
[3] = CH3CO-Gly-Ala-Ser-X-His-Z-Lys-Phe-Leu-NH2 library, 37° C.
[4] = CH3CO-Gly-Ala-Ser-X-His-Z-Lys-Phe-Leu-NH2 library, 45° C.

## Ac-GATSHVKFL-NH2 [TSHV]
[1]
  hydrolysis score from MALDI-TOF screening: 0 (a score of 0 if no trace of the product of hydrolysis was seen after 8 hours of incubation)
[2]
  hydrolysis score from MALDI-TOF screening: 0 (a score of 0 if no trace of the product of hydrolysis was seen after 8 hours of incubation)

## Ac-GASIHSKFL-NH2 [SIHS]
[3]
  hydrolysis score from MALDI-TOF screening: 0 (a score of 0 if no trace of the product of hydrolysis was seen after 8 hours of incubation)
[4]
  hydrolysis score from MALDI-TOF screening: 0 (a score of 0 if no trace of the product of hydrolysis was seen after 8 hours of incubation)

## Ac-GATHHYKFL-NH2 [THHY]
[1]
  hydrolysis score from MALDI-TOF screening: 0 (a score of 0 if no trace of the product of hydrolysis was seen after 8 hours of incubation)
[2]
  hydrolysis score from MALDI-TOF screening: 6 (a score of 6 for detection at 4 hours)

## Ac-GATNHNKFL-NH2 [TNHN]
[1]
  hydrolysis score from MALDI-TOF screening: 0 (a score of 0 if no trace of the product of hydrolysis was seen after 8 hours of incubation)
[2]
  hydrolysis score from MALDI-TOF screening: 0 (a score of 0 if no trace of the product of hydrolysis was seen after 8 hours of incubation)

## Ac-GATYHMKFL-NH2 [TYHM]
[1]
  hydrolysis score from MALDI-TOF screening: 0 (a score of 0 if no trace of the product of hydrolysis was seen after 8 hours of incubation)
[2]
  hydrolysis score from MALDI-TOF screening: 0 (a score of 0 if no trace of the product of hydrolysis was seen after 8 hours of incubation)

## Ac-GASHHVKFL-NH2 [SHHV]
[3]
  hydrolysis score from MALDI-TOF screening: 6 (a score of 6 for detection at 4 hours)
[4]
  hydrolysis score from MALDI-TOF screening: 6 (a score of 6 for detection at 4 hours)

## Ac-GASGHEKFL-NH2 [SGHE]
[3]
  hydrolysis score from MALDI-TOF screening: 0 (a score of 0 if no trace of the product of hydrolysis was seen after 8 hours of incubation)
[4]
  hydrolysis score from MALDI-TOF screening: 0 (a score of 0 if no trace of the product of hydrolysis was seen after 8 hours of incubation)

## Ac-GATSHDKFL-NH2 [TSHD]
[1]
  hydrolysis score from MALDI-TOF screening: 0 (a score of 0 if no trace of the product of hydrolysis was seen after 8 hours of incubation)
[2]
  hydrolysis score from MALDI-TOF screening: 0 (a score of 0 if no trace of the product of hydrolysis was seen after 8 hours of incubation)

## Ac-GATVHQKFL-NH2 [TVHQ]
[1]
  hydrolysis score from MALDI-TOF screening: 0 (a score of 0 if no trace of the product of hydrolysis was seen after 8 hours of incubation)
[2]
  hydrolysis score from MALDI-TOF screening: 0 (a score of 0 if no trace of the product of hydrolysis was seen after 8 hours of incubation)

## Ac-GASPHNKFL-NH2 [SPHN]
[3]
  hydrolysis score from MALDI-TOF screening: 0 (a score of 0 if no trace of the product of hydrolysis was seen after 8 hours of incubation)
[4]
  hydrolysis score from MALDI-TOF screening: 0 (a score of 0 if no trace of the product of hydrolysis was seen after 8 hours of incubation)

## Ac-GATWHQKFL-NH2 [TWHQ]
[1]
  hydrolysis score from MALDI-TOF screening: 0 (a score of 0 if no trace of the product of hydrolysis was seen after 8 hours of incubation)
[2]
  hydrolysis score from MALDI-TOF screening: 0 (a score of 0 if no trace of the product of hydrolysis was seen after 8 hours of incubation)

## Ac-GASTHEKFL-NH2 [STHE]
[3]
  hydrolysis score from MALDI-TOF screening: 0 (a score of 0 if no trace of the product of hydrolysis was seen after 8 hours of incubation)
[4]
  hydrolysis score from MALDI-TOF screening: 0 (a score of 0 if no trace of the product of hydrolysis was seen after 8 hours of incubation)

## Ac-GATSHRKFL-NH2 [TSHR]
[1]
  hydrolysis score from MALDI-TOF screening: 0 (a score of 0 if no trace of the product of hydrolysis was seen after 8 hours of incubation)
[2]
  hydrolysis score from MALDI-TOF screening: 0 (a score of 0 if no trace of the product of hydrolysis was seen after 8 hours of incubation)

## Ac-GATFHQKFL-NH2 [TFHQ]
[1]
  hydrolysis score from MALDI-TOF screening: 0 (a score of 0 if no trace of the product of hydrolysis was seen after 8 hours of incubation)
[2]
  hydrolysis score from MALDI-TOF screening: 0 (a score of 0 if no trace of the product of hydrolysis was seen after 8 hours of incubation)

## Ac-GASTHMKFL-NH2 [STHM]
[3]
  hydrolysis score from MALDI-TOF screening: 0 (a score of 0 if no trace of the product of hydrolysis was seen after 8 hours of incubation)
[4]
  hydrolysis score from MALDI-TOF screening: 0 (a score of 0 if no trace of the product of hydrolysis was seen after 8 hours of incubation)
